# In US12023330B2, “Use of manzamines as antiproliferative agent” (priority 2020, dated 2024):
# Experiments:
# [1] = system: C33A, HeLa, SiHa and CaSki cell lines; experiment: Cell growth kinetics; type: cell-based, human
# Experimental: To maintain the treatment uniformity across the cell lines, we selected optimal dose concentration of 1 to 4 μM, and treated C33A, HeLa, SiHa and CaSki cell lines.
# Cell Growth Kinetics. Cervical cancer cells (1×10^6) or HKc (2×10^5) were plated in 100 mm tissue culture petri dish or 6-well plates. Following overnight incubation, cells were treated with 2 μM or 4 μM concentrations of manzamine A (1) derivatives for different time points (24, 48 and 72 hours). Dimethyl sulphoxide (DMSO) was used as control. The cell proliferation activity was determined by cell counting under the microscope with a hemocytometer using trypan blue staining.
# SiHa cells [2] = experiment: Apoptosis analysis (annexin V and PI staining); type: cell-based, human; conditions: 4 μM, 48 hours
# Experimental: (§1) Since programmed cell death (apoptosis) is a key mechanism by which anti-cancer drugs kill cancer cells, we determined the apoptotic effect of manzamine A on cervical cancer cells using annexin V and PI staining. […] Given the sensitivity of C33A and HeLa cell lines to manzamine A, an increase in apoptosis was expected. […] CaSki cells were the least sensitive and corresponds to the IC50 values as in FIG. 2.
# (§2) Cell-cycle and Apoptosis Analysis. Cervical cancer cells were seeded and treated with different concentrations of manzamine A (1) as above. Following trypsinization, one part of the cells was washed with PBS and fixed in chilled 70% ethanol on ice for 30 min. Cells were treated with RNAse A (1 mg/ml) at room temperature for 30 min and stained with propidium iodide (PI: 20 μg/ml). Cell-cycle distribution was analyzed by flow cytometry (Beckman Coulter Epics Elite, Beckman). A minimum of 10,000 events were counted per sample, and the data were analyzed using CXP software (Beckman Coulter) for the proportions of cells in G0/G1, S and G2/M phases of the cell cycle. The second part of the cells were washed twice with PBS and re-suspended in the buffer containing Alexa Fluor conjugated-Annexin-V and PI (Life Technologies, USA). The double staining of the cells was analyzed by flow cytometric analysis. A total of 10,000 cell events were collected to analyze the extent of early, late apoptosis, or necrosis from each sample with the percentages of bound annexin-V^+/PI^−, annexin V^+/PI^+, and annexin V^−/PI^+, respectively.
# HeLa cells [3] = experiment: Apoptosis analysis (annexin V and PI staining); type: cell-based, human
# Experimental: as §1, §2
# C33A cells [4] = experiment: Apoptosis analysis (annexin V and PI staining); type: cell-based, human
# Experimental: as §1, §2
# CaSki cells [5] = experiment: Apoptosis analysis (annexin V and PI staining); type: cell-based, human; conditions: 4 μM, 48 hours
# Experimental: as §1, §2
# SiHa cells [6] = experiment: Cell cycle distribution by flow cytometry (PI); type: cell-based, human; conditions: 4 μM
# Experimental: (§3) Differential Activation of G1 Phase Arrest and Apoptosis by Manzamine A (1). To understand the mechanism of manzamine A (1)-mediated cell growth inhibition, we analyzed the cell cycle distribution by flow cytometry in C33A, HeLa, SiHa, and CaSki cell lines. […] FIGS. 3A and 3B show a representation of manzamine A (1) effect on cervical cancer cells treated with 4 μM concentration. […] The values represent standard error from the mean (mean±SE). DMSO serves as control. The significance level represents; *p<0.05; **p<0.001; ***[…]; and ns=non-significant. […] Particularly at 4 μM concentration, the percentage of G0/G1 cell population in SiHa and CaSki increased to 1.2 fold (p=0.001) and 1.4 fold (p=0.011) at 24 hours, and 1.2 fold (p=0.03) and 1.5 fold (p=0.006) at 48 hours as compared to respective DMSO control.
# as §2
# HeLa cells [7] = experiment: Cell cycle distribution by flow cytometry (PI); type: cell-based, human; conditions: 4 μM, 48 and 72 hours, vs DMSO control
# Experimental: as §3, §2
# C33A cells [8] = experiment: Cell cycle distribution by flow cytometry (PI); type: cell-based, human; conditions: 4 μM, 48 and 72 hours
# Experimental: as §3, §2
# CaSki cells [9] = experiment: Cell cycle distribution by flow cytometry (PI); type: cell-based, human; conditions: 4 μM
# Experimental: as §3, §2
# [10] = Weight loss at high doses; type: in vivo
# Text: The manzamine class of marine alkaloids is attractive in its potential for the development of novel therapeutics. This group has among the most extensively studied marine natural products to date, being found in more than 16 species of Indo-Pacific sponges distributed within distinct geographical regions. […] These molecules also show interesting activity as neuroprotective and anti-inflammatory agents, HIV/AIDS-associated opportunistic infections, and inhibition of cancer proliferative and metastatic activity. See Ridley, R. G.; Matile, H.; Jaquet, C.; Dorn, A.; Hofheinz, W.; Leupin, W.; Masciadri, R.; Theil, F. P.; Richter, W. F.; Girometta, M. A.; Guenzi, A.; Urwyler, H.; Gocke, E.; Potthast, J. M.; Csato, M.; Thomas, A.; Peters, W. Antimicrob. Agents Chemother. 1997, 41, 677-686. […] It is anticipated that short-term weight-loss would be less problematic or would not necessarily offset the therapeutic gain in cancer patients.
# [11] = system: normal human keratinocytes (HKc); experiment: Cell growth kinetics of normal keratinocytes; type: cell-based; conditions: 4 μM stated for compound 4; 48 h and 72 h; vs DMSO control
# Experimental: Based on MoIN, the additional manzamine-related compounds such as manzamine D (2), manzamine F (3), 8-hydroxymanzamine A (4), and ircinal A (5) were tested for their biological activities targeting cervical cancer cell lines (SiHa and CaSki).
# Generation of Normal Human Keratinocytes (HKc). The generation and processing of normal HKc from de-identified foreskin tissue samples has previously been described in our studies, see Pirisi, L.; Yasumoto, S.; Feller, M.; Doniger, J.; DiPaolo, J. A. J. Virol. 1987, 61, 1061-1066, and was implemented with the following modifications: dispase was used in lieu of collagenase, and a trypsinization step was added to release the epidermal cells. Briefly, to generate normal HKc primary cultures, the foreskin tissue, free of subcutaneous tissue, was placed in 10% dispase in phosphate buffer saline (PBS) and incubated overnight at 37° C. The next day, the epidermis was separated from the dermis, and processed mechanically by shredding the tissue into smaller pieces that were then treated with Trypsin/EDTA for 10 minutes at 37° C. Following the addition of fetal bovine serum (10%) to stop the trypsin action, cells were collected by centrifugation and plated in keratinocytes serum free medium (KSFM).
# Cell Growth Kinetics. […] The cell proliferation activity was determined by cell counting under the microscope with a hemocytometer using trypan blue staining.
structure (smiles),measurement,setting,value
O[C@]12C=C(c3nccc4c3[nH]c3ccccc34)[C@@H]3CCN(CCCC/C=C\CC1)C[C@@]31C[C@@H]3/C=C\CCCCN3[C@H]12 [manzamine A],cervical cancer cell proliferation,"[1]; 1 to 4 μM, time- and dose-dependent, vs DMSO control",significantly inhibited
same,"anti-proliferative, non-cytotoxic concentrations",[1]; cervical cancer cells,up to 4 μM
same,percentage of induced apoptotic cells (apoptosis+ necrosis),SiHa cells [2],33.6%
same,percentage of induced apoptotic cells (apoptosis+ necrosis),"HeLa cells [3]; 4 μM, 48 hours",75.9%
same,apoptosis,HeLa cells [3]; forty-eight hours treatment,significant increase
same,percentage of induced apoptotic cells (apoptosis+ necrosis),"C33A cells [4]; 4 μM, 48 hours",36.5%
same,apoptosis and necrosis,C33A cells [4]; 24 hours,induces apoptosis
same,percentage of induced apoptotic cells (apoptosis+ necrosis),CaSki cells [5],23.2%
same,increase of percentage of G0/G1 cell population vs DMSO control,SiHa cells [6]; 24 hours,1.2 fold
same,increase of percentage of G0/G1 cell population vs DMSO control,SiHa cells [6]; 48 hours,1.2 fold
same,cell population in G0/G1,HeLa cells [7],significant decrease
same,G2/M cell population,C33A cells [8],significant decrease
same,cell population in G0/G1,C33A cells [8]; vs DMSO control,significant decrease
same,increase of percentage of G0/G1 cell population vs DMSO control,CaSki cells [9]; 24 hours,1.4 fold
same,increase of percentage of G0/G1 cell population vs DMSO control,CaSki cells [9]; 48 hours,1.5 fold
same,body weight,[10],weight loss
same,cell growth kinetics of normal HKc,[11],no adverse effect
